Read-outs that look alike come from different tables or passages of the source. Numbered stars: 1 amine (or outer) side, 2 acyl side, 3 side chain; on linkers, the order of the positions; unused ones are H or OH. Bridge positions count the residues as written; N and C are the ends. Side chains are listed from the residue outwards. Peptide text beside a SMILES is read from it. * marks the point of attachment. C20 diacid = O=C(O)CCCCCCCCCCCCCCCCCCC(=O)*; γGlu = O=C(O)[C@H](CCC(=O)[*:2])N[*:1]; AEEA = NCCOCCOCC(=O)O
Key:
[1] = biological target: T1, human amylin receptor (amylin 3(a) receptor: human calcitonin receptor + RAMP-3) (Homo sapiens, UniProt O60896+P30988); experiment: Assay (II)a functional assay, human amylin receptor (CRE luciferase, BHK cells); type: cell-based; conditions: for EC50: read-out: hAmylin-R funct. EC50
T1 construct: expressed in transfected cells
T1 sequence (P30988 25-474): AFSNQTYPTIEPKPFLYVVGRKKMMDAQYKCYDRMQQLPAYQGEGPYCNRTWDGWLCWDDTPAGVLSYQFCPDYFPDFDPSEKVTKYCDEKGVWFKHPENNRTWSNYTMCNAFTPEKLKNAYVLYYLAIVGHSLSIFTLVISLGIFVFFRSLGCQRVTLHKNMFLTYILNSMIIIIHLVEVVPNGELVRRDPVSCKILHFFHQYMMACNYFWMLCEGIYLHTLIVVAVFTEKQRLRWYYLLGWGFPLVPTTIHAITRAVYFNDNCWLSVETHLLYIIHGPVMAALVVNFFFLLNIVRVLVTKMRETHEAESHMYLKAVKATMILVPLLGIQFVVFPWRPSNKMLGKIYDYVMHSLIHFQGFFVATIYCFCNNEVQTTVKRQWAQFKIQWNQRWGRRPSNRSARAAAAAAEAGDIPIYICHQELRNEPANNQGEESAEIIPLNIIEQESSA
T1 sequence (O60896 24-148 partner): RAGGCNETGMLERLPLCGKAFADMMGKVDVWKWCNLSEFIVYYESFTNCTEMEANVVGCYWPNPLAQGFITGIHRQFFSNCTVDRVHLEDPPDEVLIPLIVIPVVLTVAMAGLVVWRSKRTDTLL

[2] = biological target: T2, human calcitonin receptor (Homo sapiens, UniProt P30988); experiment: Assay (II)a functional assay, human calcitonin receptor (CRE luciferase, BHK cells);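 further: luminescence from a CRE-driven luciferase reporter, read by single photon counting after cells were exposed to test samples for 3 h at 37 °C under 5% CO2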; type: cell-based; conditions: read-out: hCTR funct. EC50
T2 construct: expressed in transfected cells
T2 sequence (P30988 25-474): T1 sequence (P30988 25-474)

human amylin receptor = biological target: T3, human amylin receptor (Homo sapiens, UniProt O60896+P30988); experiment: Assay (V) binding to the human amylin receptor (SPA, 125I-rat amylin); conditions: for IC50: human amylin receptor membranes, SPA, read-out: hAmylin-R bind IC50
T3 construct: expressed in transfected cells
T3 sequence (P30988 25-474): T1 sequence (P30988 25-474)
T3 sequence (O60896 24-148 partner): T1 sequence (O60896 24-148 partner)
Procedure, shortened: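 SPA competition binding on membranes from Amylin 3(a)/CRE-luc cells, 35 ng/μL membranes with 0.05 mg/well beads. Buffer 50 mM Hepes pH 7.4, 1 mM CaCl2, 5 mM MgCl2, 0.1% OA, 0.02% Tween20. IC50 from one-site competition fit as affinity measure.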

[3] = biological target: T2, human calcitonin receptor; experiment: Assay (VII) binding to the human calcitonin receptor (SPA, 125I-Calcitonin); conditions: read-out: hCTR bind IC50;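 further: cell membranes coupled to SPA beads, competitive displacement read by scintillation counting, IC50 derived from a one-site competition fit as a measure of receptor affinity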
[4] = functional assay, human amylin receptor
[5] = Table 6, human functional selectivity (hCTR EC50 / hAmylin-R EC50)
[6] = Table 6a, human functional selectivity (hCTR EC50 / hAmylin-R EC50), at least 5
[7] = Table 6j, hCTR funct. EC50 / hAmylin-R funct. EC50
[8] = Table 6j, human amylin receptor functional
[9] = Table 6k, hCTR funct. EC50 / hAmylin-R funct. EC50

Row | SMILES | EC50 [1, 4] [nM] | EC50 [2] [nM] | IC50 (human amylin receptor) [nM] | IC50 [3] [nM] | Ratio hCT/hAmylin funct. [1, 5] | Ratio hCT/hAmylin funct. [1, 6] | Ratio hCT/hAmylin funct. [1, 7] | EC50 [1, 8] [nM] | Ratio hCT/hAmylin funct. [1, 9] | Ratio hCT/hAmylin binding (human amylin receptor; Table 7b, human calcitonin receptor binding IC50 divided by human amylin receptor binding IC50) | Ratio hCT/hAmylin binding (human amylin receptor; Table 7c, human calcitonin receptor binding IC50 divided by human amylin receptor binding IC50) | Ratio hCT/hAmylin binding (human amylin receptor; human binding ratio, included for comparison)
1 | CC[C@H](C)[C@H](NC(=O)[C@H](C)NC(=O)CNC(=O)[C@H](Cc1ccccc1)NC(=O)[C@H](CC(N)=O)NC(=O)[C@@H]1CCCN1C(=O)[C@H](CO)NC(=O)[C@H](CO)NC(=O)[C@H](Cc1c[nH]cn1)NC(=O)[C@H](CCCNC(=N)N)NC(=O)[C@H](CC(C)C)NC(=O)[C@H](Cc1ccccc1)NC(=O)[C@H](CCCNC(=N)N)NC(=O)[C@H](C)NC(=O)[C@H](CC(C)C)NC(=O)[C@H](CCCNC(=N)N)NC(=O)[C@H](CCC(N)=O)NC(=O)[C@@H](NC(=O)[C@H](C)NC(=O)[C@@H]1CSSC[C@H](NC(=O)[C@@H](N)CCCCNC(=O)CC[C@H](NC(=O)CCCCCCCCCCCCCCCCCCC(=O)O)C(=O)O)C(=O)N[C@@H](CC(N)=O)C(=O)N[C@@H]([C@@H](C)O)C(=O)N[C@@H](C)C(=O)N[C@@H]([C@@H](C)O)C(=O)N1)[C@@H](C)O)C(=O)N1CCC[C@H]1C(=O)N[C@@H](CO)C(=O)N[C@@H](CO)C(=O)N[C@H](C(=O)N1CCC[C@H]1C(=O)N[C@H](C(=O)NCC(=O)N[C@@H](CO)C(=O)N[C@@H](CC(N)=O)C(=O)N[C@H](C(=O)N[C@@H](Cc1ccc(O)cc1)C(N)=O)[C@@H](C)O)C(C)C)[C@@H](C)O [Example 63] (H-K([γGlu-C20 diacid])CNTATCATQRLARFLRHSSPNFGAIPSSTPVGSNTY-NH2; disulfide 2-7) | 0.037 | 5.13 | 0.825 | 130 |  |  |  |  |  |  |  | 
2 | CC[C@H](C)[C@H](NC(=O)[C@H](C)NC(=O)CNC(=O)[C@H](Cc1ccccc1)NC(=O)[C@H](CC(N)=O)NC(=O)[C@@H]1CCCN1C(=O)[C@H](CO)NC(=O)[C@H](CO)NC(=O)[C@H](Cc1c[nH]cn1)NC(=O)[C@H](CCCNC(=N)N)NC(=O)[C@H](CC(C)C)NC(=O)[C@H](Cc1ccccc1)NC(=O)[C@H](Cc1c[nH]cn1)NC(=O)[C@H](C)NC(=O)[C@H](CC(C)C)NC(=O)[C@H](CCCNC(=N)N)NC(=O)[C@H](CCC(N)=O)NC(=O)[C@@H](NC(=O)[C@H](C)NC(=O)[C@@H]1CSSC[C@H](NC(=O)[C@@H](N)CCCCNC(=O)CC[C@H](NC(=O)CCCCCCCCCCCCCCCCCCC(=O)O)C(=O)O)C(=O)N[C@@H](CC(N)=O)C(=O)N[C@@H]([C@@H](C)O)C(=O)N[C@@H](C)C(=O)N[C@@H]([C@@H](C)O)C(=O)N1)[C@@H](C)O)C(=O)N1CCC[C@H]1C(=O)N[C@@H](CO)C(=O)N[C@@H](CO)C(=O)N[C@H](C(=O)N[C@@H](CC(N)=O)C(=O)N[C@H](C(=O)NCC(=O)N1CCC[C@H]1C(=O)N[C@@H](CC(N)=O)C(=O)N[C@H](C(=O)N[C@@H](Cc1ccc(O)cc1)C(N)=O)[C@@H](C)O)C(C)C)[C@@H](C)O [Example 67] (H-K([γGlu-C20 diacid])CNTATCATQRLAHFLRHSSPNFGAIPSSTNVGPNTY-NH2; disulfide 2-7) |  | 0.354 | 0.09 | 4.63 | 5.2 | 5.2 | 5.2 | 0.069 | 5.2 |  |  | 
3 | CC[C@H](C)[C@H](NC(=O)[C@H](C)NC(=O)CNC(=O)[C@H](Cc1ccccc1)NC(=O)[C@H](CC(N)=O)NC(=O)[C@@H]1CCCN1C(=O)[C@H](CO)NC(=O)[C@H](CO)NC(=O)[C@H](Cc1c[nH]cn1)NC(=O)[C@H](CCCNC(=N)N)NC(=O)[C@H](CC(C)C)NC(=O)[C@H](Cc1ccccc1)NC(=O)[C@H](Cc1c[nH]cn1)NC(=O)[C@H](C)NC(=O)[C@H](CC(C)C)NC(=O)[C@H](CCCNC(=N)N)NC(=O)[C@H](CCC(N)=O)NC(=O)[C@@H](NC(=O)[C@H](C)NC(=O)[C@@H]1CSSC[C@H](NC(=O)[C@@H](N)CCCCNC(=O)COCCOCCNC(=O)CC[C@H](NC(=O)CCCCCCCCCCCCCCCCCCC(=O)O)C(=O)O)C(=O)N[C@@H](CC(N)=O)C(=O)N[C@@H]([C@@H](C)O)C(=O)N[C@@H](C)C(=O)N[C@@H]([C@@H](C)O)C(=O)N1)[C@@H](C)O)C(=O)N1CCC[C@H]1C(=O)N[C@@H](CO)C(=O)N[C@@H](CO)C(=O)N[C@H](C(=O)N[C@@H](CC(N)=O)C(=O)N[C@H](C(=O)NCC(=O)N1CCC[C@H]1C(=O)N[C@@H](CC(N)=O)C(=O)N[C@H](C(=O)N[C@@H](Cc1ccc(O)cc1)C(N)=O)[C@@H](C)O)C(C)C)[C@@H](C)O [Example 68] (H-K([AEEA-γGlu-C20 diacid])CNTATCATQRLAHFLRHSSPNFGAIPSSTNVGPNTY-NH2; disulfide 2-7) | 0.054 | 0.932 | 0.088 | 5.66 |  |  |  |  |  |  |  | 
4 | CC[C@H](C)[C@H](NC(=O)[C@H](C)NC(=O)CNC(=O)[C@H](Cc1ccccc1)NC(=O)[C@H](CC(N)=O)NC(=O)[C@@H]1CCCN1C(=O)[C@H](CO)NC(=O)[C@H](CO)NC(=O)[C@H](Cc1c[nH]cn1)NC(=O)[C@H](CCCNC(=N)N)NC(=O)[C@H](CC(C)C)NC(=O)[C@H](Cc1ccccc1)NC(=O)CNC(=O)[C@H](C)NC(=O)[C@H](CC(C)C)NC(=O)[C@H](CCCNC(=N)N)NC(=O)[C@H](CCC(N)=O)NC(=O)[C@@H](NC(=O)[C@H](C)NC(=O)[C@@H]1CSSC[C@H](NC(=O)[C@@H](N)CCCCNC(=O)COCCOCCNC(=O)CC[C@H](NC(=O)CCCCCCCCCCCCCCCCCCC(=O)O)C(=O)O)C(=O)N[C@@H](CC(N)=O)C(=O)N[C@@H]([C@@H](C)O)C(=O)N[C@@H](C)C(=O)N[C@@H]([C@@H](C)O)C(=O)N1)[C@@H](C)O)C(=O)N1CCC[C@H]1C(=O)N[C@@H](CO)C(=O)N[C@@H](CO)C(=O)N[C@H](C(=O)N1CCC[C@H]1C(=O)N[C@H](C(=O)NCC(=O)N[C@@H](CO)C(=O)N[C@@H](CC(N)=O)C(=O)N[C@H](C(=O)N[C@@H](Cc1ccc(O)cc1)C(N)=O)[C@@H](C)O)C(C)C)[C@@H](C)O [Example 71] (H-K([AEEA-γGlu-C20 diacid])CNTATCATQRLAGFLRHSSPNFGAIPSSTPVGSNTY-NH2; disulfide 2-7) |  | 0.527 | 0.048 | 1.54 | 9.4 | 9.4 | 9.4 | 0.056 | 9.4 | 32.0 | 32.0 | 32.0
5 | CC[C@H](C)[C@H](NC(=O)[C@H](C)NC(=O)CNC(=O)[C@H](Cc1ccccc1)NC(=O)[C@H](CC(N)=O)NC(=O)[C@@H]1CCCN1C(=O)[C@H](CO)NC(=O)[C@H](CO)NC(=O)[C@H](Cc1c[nH]cn1)NC(=O)[C@H](CCCNC(=N)N)NC(=O)[C@H](CC(C)C)NC(=O)[C@H](Cc1ccccc1)NC(=O)[C@H](CCCNC(=N)N)NC(=O)[C@H](C)NC(=O)[C@H](CC(C)C)NC(=O)[C@H](CCCNC(=N)N)NC(=O)[C@H](CCC(N)=O)NC(=O)[C@@H](NC(=O)[C@H](C)NC(=O)[C@@H]1CSSC[C@H](NC(=O)[C@@H](N)CCCCNC(=O)CC[C@H](NC(=O)CCCCCCCCCCCCCCCCCCC(=O)O)C(=O)O)C(=O)N[C@@H](CC(N)=O)C(=O)N[C@@H]([C@@H](C)O)C(=O)N[C@@H](C)C(=O)N[C@@H]([C@@H](C)O)C(=O)N1)[C@@H](C)O)C(=O)N1CCC[C@H]1C(=O)N[C@@H](CO)C(=O)N[C@@H](CO)C(=O)N[C@H](C(=O)N[C@@H](CC(N)=O)C(=O)N[C@H](C(=O)NCC(=O)N[C@@H](CO)C(=O)N[C@@H](CC(N)=O)C(=O)N[C@H](C(=O)N[C@@H](Cc1ccc(O)cc1)C(N)=O)[C@@H](C)O)C(C)C)[C@@H](C)O [Example 83] | 0.405 | 16.8 | 0.939 | 137 |  |  |  |  |  |  |  | 
